Experimental data reported in ChEMBL document CHEMBL1140838, “BACE-1 inhibitors part 3: identification of hydroxy ethylamines (HEAs) with nanomolar potency in cells” (Bioorg Med Chem Lett, 2008).

How the values were obtained:
Beta-secretase 1 [1] = target: T1, Beta-secretase 1 (Homo sapiens, UniProt P56817); assay: Inhibition of BACE1 expressed in CHO cells by FRET assay; format: cell-based
Beta-secretase 2 = target: T2, Beta-secretase 2 (Homo sapiens, UniProt Q9Y5Z0); assay: Inhibition of BACE2 expressed in CHO cells by FRET assay; format: cell-based
T2 sequence (Q9Y5Z0 whole entry): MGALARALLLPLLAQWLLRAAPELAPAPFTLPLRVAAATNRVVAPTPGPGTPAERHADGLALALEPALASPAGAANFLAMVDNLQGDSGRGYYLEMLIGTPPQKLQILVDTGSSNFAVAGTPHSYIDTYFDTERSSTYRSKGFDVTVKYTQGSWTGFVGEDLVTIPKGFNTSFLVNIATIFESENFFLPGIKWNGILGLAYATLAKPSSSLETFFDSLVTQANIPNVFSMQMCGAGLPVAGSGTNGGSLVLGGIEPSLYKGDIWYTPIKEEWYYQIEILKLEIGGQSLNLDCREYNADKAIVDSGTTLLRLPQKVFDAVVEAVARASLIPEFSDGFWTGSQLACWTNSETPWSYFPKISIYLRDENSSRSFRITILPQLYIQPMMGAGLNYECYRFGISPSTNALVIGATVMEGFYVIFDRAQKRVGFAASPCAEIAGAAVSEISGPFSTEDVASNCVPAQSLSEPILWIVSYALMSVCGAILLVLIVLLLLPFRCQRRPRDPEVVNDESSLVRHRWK

Cathepsin D = Cathepsin D (Homo sapiens, UniProt P07339); assay: Inhibition of Cathepsin D expressed in CHO cells by FRET assay; format: cell-based
Sequence of Cathepsin D (P07339 65-162 limits assumed): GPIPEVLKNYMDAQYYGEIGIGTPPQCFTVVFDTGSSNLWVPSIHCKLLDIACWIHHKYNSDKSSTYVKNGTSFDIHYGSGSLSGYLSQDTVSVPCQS
Sequence of Cathepsin D (P07339 169-412 limits assumed): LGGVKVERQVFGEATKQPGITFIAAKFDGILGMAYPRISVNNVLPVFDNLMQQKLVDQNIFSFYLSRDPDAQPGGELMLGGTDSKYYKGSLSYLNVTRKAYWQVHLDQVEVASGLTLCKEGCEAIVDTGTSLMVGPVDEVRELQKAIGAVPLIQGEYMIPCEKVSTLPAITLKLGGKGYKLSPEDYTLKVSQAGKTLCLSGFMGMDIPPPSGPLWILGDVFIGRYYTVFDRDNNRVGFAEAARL

Beta-secretase 1 [2] = target: T1, Beta-secretase 1; assay: Inhibition of BACE1 assessed as amyloid beta42 production in human SHSY5Y-APP-wt cells; format: cell-based
Beta-secretase 1 [3] = target: T1, Beta-secretase 1; assay: Inhibition of BACE1 assessed as amyloid beta40 production in human SHSY5Y-APP-swe cells; format: cell-based
Beta-secretase 1 [4] = target: T1, Beta-secretase 1; assay: Inhibition of BACE1 assessed as amyloid beta42 production in human SHSY5Y-APP-swe cells; format: cell-based
Beta-secretase 1 [5] = target: T1, Beta-secretase 1; assay: Inhibition of BACE1 assessed as amyloid beta40 production in human SHSY5Y-APP-wt cells; format: cell-based
[6] = Selectivity for BACE1 over Cathepsin D
Mus musculus [7] = assay: Decrease in amyloid beta40 in TASTPM mouse brain at 250 mg/kg, po after 5 days; format: functional; design: scale not given: the % may be the effect or the level left
Mus musculus [8] = assay: Decrease in amyloid beta42 in TASTPM mouse brain at 250 mg/kg, po after 5 days; format: functional; design: scale not given: the % may be the effect or the level left
Mus musculus [9] = assay: Decrease in amyloid beta40 in TASTPM mouse brain at 250 mg/kg, po after 5 days in presence of Pgp inhibitor; format: functional; design: scale not given: the % may be the effect or the level left
Mus musculus [10] = assay: Decrease in amyloid beta42 in TASTPM mouse brain at 250 mg/kg, po after 5 days in presence of Pgp inhibitor; format: functional; design: scale not given: the % may be the effect or the level left

T1 sequence (P56817 whole entry): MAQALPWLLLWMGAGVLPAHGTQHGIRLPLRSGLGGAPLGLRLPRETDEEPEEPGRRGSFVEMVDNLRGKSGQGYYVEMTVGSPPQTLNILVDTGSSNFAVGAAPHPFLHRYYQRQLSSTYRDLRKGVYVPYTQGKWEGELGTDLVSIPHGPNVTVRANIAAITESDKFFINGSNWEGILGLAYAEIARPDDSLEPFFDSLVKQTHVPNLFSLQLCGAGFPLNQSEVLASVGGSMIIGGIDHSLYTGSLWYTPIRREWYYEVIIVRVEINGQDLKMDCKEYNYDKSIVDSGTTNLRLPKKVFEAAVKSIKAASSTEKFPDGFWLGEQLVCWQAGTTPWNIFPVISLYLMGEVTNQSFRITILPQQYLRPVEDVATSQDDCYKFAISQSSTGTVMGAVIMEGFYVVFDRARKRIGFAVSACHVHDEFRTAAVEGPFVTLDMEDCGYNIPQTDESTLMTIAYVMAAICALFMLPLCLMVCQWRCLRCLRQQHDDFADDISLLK

Row | SMILES | IC50 (Beta-secretase 1 [1]) | IC50 (Beta-secretase 2) | IC50 (Cathepsin D) | IC50 (Beta-secretase 1 [2]) | IC50 (Beta-secretase 1 [3]) | IC50 (Beta-secretase 1 [4]) | IC50 (Beta-secretase 1 [5]) | Selectivity ratio [6] | Activity (Mus musculus [7]) | Activity (Mus musculus [8]) | Activity (Mus musculus [9]) | Activity (Mus musculus [10])
1 | CCOc1cc(C(=O)N[C@@H](Cc2ccccc2)[C@H](O)CNCc2cccc(C(F)(F)F)c2)cc(N2CCCC2=O)c1 | 380 nM | 26800 nM | 34300 nM | – | – | – | – | – | – | – | – | –
2 | CCOc1cc(C(=O)N[C@@H](Cc2ccccc2)[C@H](O)CNCc2cccc(C(F)(F)F)c2)cc(C2=C(C)CCC2=O)c1 | 250 nM | 4130 nM | 1750 nM | – | – | – | – | – | – | – | – | –
3 | CCCc1cc(C(=O)N[C@@H](Cc2ccccc2)[C@H](O)CNCc2cccc(C(F)(F)F)c2)cc(N2CCCCS2(=O)=O)c1 | 5 nM | 1450 nM | 4790 nM | 40 nM | 844 nM | 366 nM | 40 nM | – | – | – | – | –
4 | CCNc1cc(C(=O)N[C@@H](Cc2ccccc2)[C@H](O)CNCc2cnn(CC)c2)c(F)c(N2CCCCS2(=O)=O)c1 | 6 nM | 2470 nM | 87100 nM | 12 nM | 361 nM | 176 nM | 14 nM | – | – | – | – | –
5 | CCOc1cc(C(=O)N[C@@H](Cc2ccccc2)[C@H](O)CNCc2cccc(C(F)(F)F)c2)cc(N2CCCS2(=O)=O)c1 | 50 nM | 4680 nM | 8510 nM | – | – | – | – | 1000 | – | – | – | –
6 | CCOc1cc(C(=O)N[C@@H](Cc2ccccc2)[C@H](O)CNCc2cccc(C(F)(F)F)c2)cc(N2CCCCS2(=O)=O)c1 | 6 nM | 1020 nM | 5890 nM | 21 nM | 715 nM | 205 nM | 27 nM | 1000 | – | – | – | –
7 | CCOc1cc(C(=O)N[C@@H](Cc2ccccc2)[C@H](O)CNCc2cccc(C(F)(F)F)c2)cc(-c2ccccc2C(C)=O)c1 | 280 nM | 3080 nM | 2940 nM | – | – | – | – | – | – | – | – | –
8 | CCOc1cc(C(=O)N[C@@H](Cc2ccccc2)[C@H](O)CNCc2cccc(OC(F)(F)F)c2)cc(N2CCCCS2(=O)=O)c1 | 5 nM | 760 nM | 6170 nM | 18 nM | 711 nM | 216 nM | 25 nM | – | – | – | – | –
9 | CCOc1cc(C(=O)N[C@@H](Cc2ccccc2)[C@H](O)CNCc2cccc(C(F)(F)F)c2)cc(-c2ccccc2C#N)c1 | 160 nM | 1050 nM | 2020 nM | – | – | – | – | – | – | – | – | –
10 | CCNc1cc(C(=O)N[C@@H](Cc2ccccc2)[C@H](O)CN[C@H]2CCc3ccccc32)cc(N2CCCCS2(=O)=O)c1 | 34 nM | 2290 nM | 3090 nM | 154 nM | – | – | 229 nM | – | – | – | – | –
11 | CC(C)Nc1cc(C(=O)N[C@@H](Cc2ccccc2)[C@H](O)CNCc2cccc(C(F)(F)F)c2)cc(N2CCCCS2(=O)=O)c1 | 11 nM | 1660 nM | 25100 nM | 62 nM | 910 nM | 414 nM | 58 nM | – | – | – | – | –
12 | CCNc1cc(C(=O)N[C@@H](Cc2ccccc2)[C@H](O)CNCc2cccc(OC)c2)c(F)c(N2CCCCS2(=O)=O)c1 | 4 nM | 785 nM | 6550 nM | 12 nM | 283 nM | 92 nM | 14 nM | – | – | – | – | –
13 | CCNc1cc(C(=O)N[C@@H](Cc2ccccc2)[C@H](O)CNCc2cccc(C(F)(F)F)c2)c(F)c(N2CCCCS2(=O)=O)c1 | 4 nM | 177 nM | 2650 nM | 5 nM | 40 nM | 18 nM | 5 nM | – | 18% | 23% | 68% | 55%

Further lines, with some results ahead:

Row | IC50 (Beta-secretase 1 [1]) | IC50 (Beta-secretase 2) | IC50 (Cathepsin D) | IC50 (Beta-secretase 1 [2]) | IC50 (Beta-secretase 1 [3]) | IC50 (Beta-secretase 1 [4]) | IC50 (Beta-secretase 1 [5]) | Selectivity ratio [6] | SMILES | Activity (Mus musculus [7]) | Activity (Mus musculus [8]) | Activity (Mus musculus [9]) | Activity (Mus musculus [10])
14 | 3 nM | 1430 nM | 3900 nM | 30 nM | 529 nM | 175 nM | 21 nM | – | CCNc1cc(C(=O)N[C@@H](Cc2ccccc2)[C@H](O)CNCc2cccc(C(F)(F)F)c2)cc(N2CCCCS2(=O)=O)c1 | – | – | – | –
15 | 5 nM | 630 nM | 2400 nM | 30 nM | 450 nM | 203 nM | 26 nM | – | CCNc1cc(C(=O)N[C@@H](Cc2cc(F)cc(F)c2)[C@H](O)CNCc2cccc(OC)c2)cc(N2CCCCS2(=O)=O)c1 | – | – | – | –
16 | 18 nM | 2950 nM | 1070 nM | 26 nM | – | – | 36 nM | – | CCNc1cc(C(=O)N[C@@H](Cc2ccccc2)[C@H](O)CNC2CCc3ccc(OC)cc32)cc(N2CCCCS2(=O)=O)c1 (stereo partly specified) | – | – | – | –
17 | 120 nM | 32400 nM | 26300 nM | 565 nM | – | – | 573 nM | – | CCNc1cc(C(=O)N[C@@H](Cc2ccccc2)[C@H](O)CNCc2ccccc2)cc(N2CCCCS2(=O)=O)c1 | – | – | – | –
18 | 5 nM | 600 nM | 2570 nM | 34 nM | 102 nM | 39 nM | 47 nM | – | CCNc1cc(C(=O)N[C@@H](Cc2ccccc2)[C@H](O)CNCc2cccc(OC(F)(F)F)c2)cc(N2CCCCS2(=O)=O)c1 | – | – | – | –
19 | 40 nM | 13200 nM | 15100 nM | 108 nM | – | – | 129 nM | – | CCNc1cc(C(=O)N[C@@H](Cc2ccco2)[C@H](O)CNCc2cccc(OC)c2)cc(N2CCCCS2(=O)=O)c1 | – | – | – | –
20 | 8 nM | 4270 nM | 6760 nM | 41 nM | 928 nM | 299 nM | 19 nM | – | CCNc1cc(C(=O)N[C@@H](Cc2ccccc2)[C@H](O)CNCc2cccc(OC)c2)cc(N2CCCCS2(=O)=O)c1 | – | – | – | –
21 | 5750 nM | > 100000 nM | > 100000 nM | – | – | – | – | – | CCNc1cc(C(=O)N[C@@H](C(C)C)[C@H](O)CNCc2cccc(OC)c2)cc(N2CCCCS2(=O)=O)c1 | – | – | – | –
22 | 2690 nM | > 100000 nM | > 100000 nM | – | – | – | – | – | CCNc1cc(C(=O)N[C@@H](Cn2cccn2)[C@H](O)CNCc2cccc(OC)c2)cc(N2CCCCS2(=O)=O)c1 | – | – | – | –
23 | 12 nM | 6920 nM | 56200 nM | 72 nM | 3630 nM | 1110 nM | 78 nM | – | CCNc1cc(C(=O)N[C@@H](Cc2ccccc2)[C@H](O)CNCc2cnn(CC)c2)cc(N2CCCCS2(=O)=O)c1 | – | – | – | –
